# Reference: patent US8859599B2, “Androgen receptor modulating compounds, preparation and uses thereof” (priority 2009, dated 2014)
# Where two headings read alike, the source gives them in different places.
# Assays:
# [1] = target: T1, human androgen receptor (hAR) (Homo sapiens, UniProt P10275); experiment: hAR transactivation assay (ARE-luciferase reporter) in Cos-7 cells; format: cell-based; conditions: for inhibition of androgen-induced transcriptional activation (antagonistic activity): cells challenged with 10 nM R1881, compound at 10 μM
# T1 construct: The cDNA coding hAR was cloned into the pSG5 expression vector as reported previously; expressed in transfected cells; host or cells: Cos-7 cells transiently transfected with pSG5-hAR
# T1 sequence (P10275 1-920): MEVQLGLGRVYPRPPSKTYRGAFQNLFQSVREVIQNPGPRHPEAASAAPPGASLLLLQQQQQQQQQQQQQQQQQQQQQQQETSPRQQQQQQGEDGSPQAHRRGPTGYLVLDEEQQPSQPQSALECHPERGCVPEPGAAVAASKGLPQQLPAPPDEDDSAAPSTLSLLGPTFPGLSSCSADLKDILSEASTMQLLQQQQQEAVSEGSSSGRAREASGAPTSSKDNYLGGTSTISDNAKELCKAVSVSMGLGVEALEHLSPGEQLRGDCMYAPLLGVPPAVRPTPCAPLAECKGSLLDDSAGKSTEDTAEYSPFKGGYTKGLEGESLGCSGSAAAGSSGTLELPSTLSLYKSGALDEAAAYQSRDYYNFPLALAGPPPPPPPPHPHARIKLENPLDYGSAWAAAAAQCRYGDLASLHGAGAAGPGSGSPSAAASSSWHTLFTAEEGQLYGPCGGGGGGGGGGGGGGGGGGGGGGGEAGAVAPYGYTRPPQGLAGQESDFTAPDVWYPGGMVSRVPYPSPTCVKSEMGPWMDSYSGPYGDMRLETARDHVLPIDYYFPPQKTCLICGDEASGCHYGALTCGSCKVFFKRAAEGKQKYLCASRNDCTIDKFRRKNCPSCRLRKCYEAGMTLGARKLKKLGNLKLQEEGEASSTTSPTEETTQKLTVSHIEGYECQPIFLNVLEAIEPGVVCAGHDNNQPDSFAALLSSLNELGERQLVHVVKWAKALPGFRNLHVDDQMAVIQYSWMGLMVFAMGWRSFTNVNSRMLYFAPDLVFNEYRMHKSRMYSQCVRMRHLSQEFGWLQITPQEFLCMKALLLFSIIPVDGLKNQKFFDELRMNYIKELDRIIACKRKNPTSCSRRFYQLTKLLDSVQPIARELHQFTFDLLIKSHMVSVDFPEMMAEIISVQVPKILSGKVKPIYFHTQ
# Experimental: The cDNA coding hAR was cloned into the pSG5 expression vector as reported previously [Chang, C. S., et al., Science (1988)240:324-326]. The 3416 construct (ARE-Luc), containing four copies of the wild-type slp-HRE2 (5′-TGGTCAgccAGTTCT-3′) (SEQ ID No. 1) was cloned in the NheI site in pTK-TATA-Luc [Verrijdt, G. et al., J. Biol. Chem. (2000)275:12298-12305].
# For androgen-stimulated transcriptional analysis, 32×10^4 Cos-7 cells were plated in phenol red-free DMEM containing 5% charcoal-stripped serum. After 48 h, the cells were transfected by Superfect (Qiagen) with 0.3 μg of 3416-pTK-TATA-Luc construct, together with 1.5 μg of either pSG5-empty plasmid or pSG5-hAR expressing plasmid. After 18 h, transfected cells were stimulated for 24 h with 10 nM of the synthetic androgen, R1881 (from Perkin-Elmer; dissolved in 0.001% ethanol, final concentration), in the absence or presence of the indicated concentrations of synthetic compounds. When indicated, the synthetic compounds were added alone to the cell medium. […] It was dissolved in 0.001% (final concentration) ethanol. Control cells were treated with the vehicle alone. Lysates were prepared and the luciferase activity was measured using a luciferase assay system (Promega). The results were corrected using CH110-expressed beta-galactosidase activity (Amersham Biosciences) and luciferase activity was expressed as fold induction. Results were obtained from two or three different experiments, each performed in duplicate. Mean and SEM are shown.
# LNCaP cells = experiment: Sulforhodamine B (SRB) in vitro chemosensitivity assay on LNCaP cells; format: cell-based; conditions: for cytostatic effect: suppression of cell growth: highest concentration tested
# Experimental: Sulforhodamine B (SRB) assay was used according to the method by Skehan et al. (JNCI, 1990). Briefly, cells were collected by trypsinization, counted and plated at a density of 5,000 cells/well in 96-well flat-bottomed microtiter plates (100 μl of cell suspension/well). In the chemosensitivity assay, experiments were run in octuplicate, and each experiment was repeated three times. The optical density (OD) of cells was determined at a wavelength of 490 nm by a colorimetric plate reader.
# Growth inhibition and cytocidal effect of drugs were calculated according to the formula reported by Monks et al. (JNCI, 1991): [(ODtreated−ODzero)/(ODcontrol−ODzero)]×100%, when ODtreated is > to ODzero. If ODtreated is above ODzero, treatment has induced a cytostatic effect, whereas if ODtreated is below ODzero, cell killing has occurred. The ODzero depicts the cell number at the moment of drug addition, the ODcontrol reflects the cell number in untreated wells and the ODtreated reflects the cell number in treated wells on the day of the assay. TUNEL Assay
# The authors examined the antitumour activity of the compounds for which the synthesis is described above, in the hormone-sensitive prostate cancer cell line LNCaP. (R)-Bicalutamide and the novel compounds were tested at the increasing concentrations of […]. The highest dose used was chosen on the basis of the clinically achievable peak plasma concentration reported in the literature for bicalutamide (Cockshott I D. Clin Pharmacokinet. 2004; 43 (13) 855-78).
# After 144-hr exposure time, the cytotoxic effect of the molecules was calculated according to the method of Monks et al. (Monks A, et al., J. Nat. Cancer Inst. 1991; 83: 757-66).
# LNCaP-AR cells = experiment: TUNEL assay of apoptotic cells in LNCaP-AR; format: cell-based, human; conditions: 144 h, 20.0 μM
# [2] = Homo sapiens, LNCaP cells, 144 h exposure, read-out: Growth inhibition (GI50)
# [3] = LNCaP cells, 144 h exposure, n.r. = not reached
# [4] = Homo sapiens, LNCaP, 144 h, read-out: Growth inhibition (GI50), LNCaP cells, 144 h exposure
compound,measurement,setting,value
N#Cc1ccc(OCC(N)(Cc2ccccc2)C(=O)Nc2ccc(C#N)c(C(F)(F)F)c2)cc1 (stereo in doubt) [(R)-7c],agonistic activity in presence of Casodex,[1]; Casodex at 10 μM,inhibited
same,"increase of transcriptional activity of AR, compound alone",[1]; range between 10-100 nM,about 15 fold
N#Cc1ccc(NC(=O)C(N)(Cc2ccccc2)CS(=O)(=O)c2ccc(F)cc2)cc1C(F)(F)F (stereo in doubt) [(S)-8],cytocidal effects by 50% (LC50),LNCaP cells,n.r.
same,GI50,LNCaP cells; [2],10.4 µM
same,cytostatic effect: suppression of cell growth,"LNCaP cells; LNCaP cells, 144 h",suppress completely the cell growth
N#Cc1ccc(NC(=O)C(N)(CS(=O)(=O)c2ccc(F)cc2)c2ccccc2)cc1C(F)(F)F (stereo in doubt) [(S)-9],cytostatic effect: suppression of cell growth,"LNCaP cells; LNCaP cells, 144 h",suppress completely the cell growth
same,cytocidal effects by 50% (LC50),LNCaP cells; [3],n.r.
same,GI50,"LNCaP cells; read-out: Growth inhibition (GI50), LNCaP cells, 144 h exposure",4 µM
"N#Cc1ccc(NC(=O)[C@](N)(Cc2ccccc2)CS(=O)(=O)c2ccc(F)cc2)cc1C(F)(F)F [(R)-8, (R)-2-amino-2-benzyl-N-(4-cyano-3-(trifluoromethyl)phenyl)-3-(4-fluorophenylsulfonyl)propanamide]",cytocidal (cell killing) activity,"LNCaP cells; LNCaP cells, 144 h exposure",cytocidal activity
N#Cc1ccc(N2C(=O)[C@](Cc3ccccc3)(CS(=O)(=O)c3ccc(F)cc3)NC2=S)cc1C(F)(F)F [(R)-11],cytocidal effects by 50% (LC50),LNCaP cells,n.r.
same,GI50,LNCaP cells; [2],8.5 µM
same,cytocidal (cell killing) activity,"LNCaP cells; LNCaP cells, 144 h exposure",cytocidal activity
same,"agonistic activity, compound alone",[1]; authors' experimental conditions,does not show agonistic activity
same,inhibition of androgen-induced transcriptional activation (antagonistic activity),[1],strong inhibition
CS(=O)(=O)N[C@@](CS(=O)(=O)c1ccc(F)cc1)(C(=O)Nc1ccc(C#N)c(C(F)(F)F)c1)c1ccccc1 [(R)-12],inhibition of androgen-induced transcriptional activation (antagonistic activity),[1],does not interfere
same,"agonistic activity, compound alone",[1]; range between 10 nM-10 μM,does not show agonistic activity
"N#Cc1ccc(N2C(=O)[C@@](CS(=O)(=O)c3ccc(F)cc3)(c3ccccc3)NC2=S)cc1C(F)(F)F [(R)-13, (R)-4-(4-((4-fluorophenylsulfonyl)methyl)-5-oxo-4-phenyl-2-thioxoimidazolidin-1-yl)-2-(trifluoromethyl)benzonitrile]",cytocidal effects by 50% (LC50),LNCaP cells,n.r.
same,GI50,LNCaP cells; [2],14 µM
Cc1ccc(S(=O)(=O)N[C@@](C)(CS(=O)(=O)c2ccc(F)cc2)C(=O)Nc2ccc(C#N)c(C(F)(F)F)c2)cc1 [(R)-26],GI50,LNCaP cells; [4],9.3 µM
same,cytocidal effects by 50% (LC50),LNCaP cells; [3],n.r.
same,apoptosis induction in the LNCaP derivative cell line versus LNCaP,LNCaP-AR cells,more active
same,inhibition of androgen-induced transcriptional activation (antagonistic activity),[1],does not show antagonistic activity
C[C@@]1(CS(=O)(=O)c2ccc(F)cc2)NC(=S)N(c2ccc(C#N)c(C(F)(F)F)c2)C1=O [(R)-27],cytocidal effects by 50% (LC50),LNCaP cells,n.r.
same,GI50,LNCaP cells; [2],15.2 µM
"C[C@@]1(CS(=O)(=O)c2ccc(F)cc2)NC(=O)N(c2ccc(C#N)c(C(F)(F)F)c2)C1=O [(R)-28, (R)-4-(4-((4-fluorophenylsulfonyl)methyl)-4-methyl-2,5-dioxoimidazolidin-1-yl)-2-(trifluoromethyl)benzonitrile]",cytocidal effects by 50% (LC50),LNCaP cells,n.r.
same,GI50,LNCaP cells; [2],14.9 µM
C[C@]1(CS(=O)(=O)c2ccc(F)cc2)C(=O)N(c2ccc(C#N)c(C(F)(F)F)c2)C(=O)N1S(C)(=O)=O [(R)-29],cytocidal effects by 50% (LC50),LNCaP cells,n.r.
same,GI50,LNCaP cells; [2],12.3 µM
N#Cc1ccc(OC[C@]2(Cc3ccccc3)NC(=O)N(c3ccc(C#N)c(C(F)(F)F)c3)C2=O)cc1 [(S)-14e],"increase of transcriptional activity of AR, compound alone",[1]; 100 nM,about 55 fold
C[C@@](N)(CS(=O)(=O)c1ccc(F)cc1)C(=O)Nc1ccc(C#N)c(C(F)(F)F)c1 [(S)-23],GI50,LNCaP cells; [4],9.4 µM
same,cytocidal effects by 50% (LC50),LNCaP cells; [3],n.r.
C[C@]1(CS(=O)(=O)c2ccc(F)cc2)NC(=O)N(c2ccc(C#N)c(C(F)(F)F)c2)C1=O [(S)-28],cytocidal effects by 50% (LC50),LNCaP cells,n.r.
same,GI50,LNCaP cells; [2],1.8 µM
C[C@@]1(CS(=O)(=O)c2ccc(F)cc2)C(=O)N(c2ccc(C#N)c(C(F)(F)F)c2)C(=O)N1S(C)(=O)=O [(S)-29],cytocidal effects by 50% (LC50),LNCaP cells,n.r.
same,GI50,LNCaP cells; [2],12.5 µM
C[C@@]1(CS(=O)(=O)c2ccc(F)cc2)C(=O)N(c2ccc(C#N)c(C(F)(F)F)c2)C(=S)N1S(C)(=O)=O [(S)-30],cytocidal effects by 50% (LC50),LNCaP cells,n.r.
same,Growth inhibition (GI50),"LNCaP cells; LNCaP cells, 144 h exposure",n.r.
C[C@]1(CS(=O)(=O)c2ccc(F)cc2)N=C(SS(C)(=O)=O)N(c2ccc(C#N)c(C(F)(F)F)c2)C1=O [(S)-31],cytocidal effects by 50% (LC50),LNCaP cells,n.r.
same,Growth inhibition (GI50),"LNCaP cells; LNCaP cells, 144 h exposure",n.r.
N#Cc1ccc(NC(=O)[C@](N)(Cc2ccc(F)cc2)c2ccccc2)cc1C(F)(F)F [(S)-36],cytocidal effects by 50% (LC50),LNCaP cells,n.r.
same,GI50,LNCaP cells; [2],4.3 µM
same,cytostatic effect: suppression of cell growth,"LNCaP cells; LNCaP cells, 144 h",suppress completely the cell growth
"C[C@]1(O)CC[C@H]2[C@@H]3CCC4=CC(=O)CCC4=C3C=C[C@@]21C [R1881, methyltrienolone-17β-hydroxy-17-methyl-estra-4,9.11-trien-3-one, reference compound]",increase of AR-mediated transcriptional activation,"[1]; 10 nM, Cos-7 cells, ARE-reporter gene",about 11 fold
